Several values for one entry are separate records, joined by “and”; a condition that tells them apart may be missing. Identical values can stand only once. Like-named read-outs stand apart in the source and are kept apart here. Marks after values point to notes of the source that are not given here.

In experiment [1] the test system is methane emissions by sheep. The class given is in vivo.
The subject of experiment [2] is volatile fatty acid profile and ammonia N concentration in the rumen. In kind it is in vivo, sheep.
Experiment [3] deals with total bacteria (16S rRNA). The class given is in vivo, sheep.
Another experiment concerns protozoa (18S rRNA). The class given is in vivo, sheep.
Experiment [4] has as its system methanogenic archaea (mcrA gene). The class given is in vivo, sheep.
Experiment [5] relates to methanogenesis in rumen liquor. Briefly: In vitro test for methane production (modified Hohenheim Forage value Test). The class given is cell-based. The following applies: for inhibition at 0.01 % / inhibition at 0.1 % / inhibition at 1 % / inhibition at 0.5 % / inhibition at 2 % / inhibition at 0.005 % / inhibition at 0.05 %: read-out: effect on methanogenesis (%).
The test system of experiment [6] is methane production of dairy cows. Further details: species or system Holstein X Friesian dairy cows. To be noted: in vivo.
The mark [7] stands for this setting: sheep, 100 mg per animal and day via ruminal cannula, day 14.
[8] abbreviates: sheep, 100 mg per animal and day via ruminal cannula, day 29.
Setting [9] is: sheep, 100 mg per animal and day via ruminal cannula, day 30.
The mark [10] stands for this setting: sheep, 100 mg per animal and day via ruminal cannula, days 29-30 pooled.
The mark [11] stands for this setting: rumen of sheep, samples of days 29 and 30, 100 mg per animal and day.
The mark [12] stands for this setting: rumen of sheep, 16S rRNA qPCR, 100 mg per animal and day.
Where [13] appears, read: rumen of sheep, 100 mg per animal and day.
[14] abbreviates: rumen of sheep, 18S rRNA qPCR, 100 mg per animal and day.
[15] abbreviates: rumen of sheep, mcrA gene qPCR, 100 mg per animal and day.
[16] abbreviates: 8 h, comparative example, 0.1% DM, average of two experiments.

Turning to `CCOC(=O)CCO[N+](=O)[O-]` [Additive 1, ethyl-3-nitrooxypropionate, reference compound], in experiment [1] (setting [7]), the “CH4 l, day” value is 21.9 l, day and the CH4 l/kg intake amounted to 25.6 l/kg intake. Also, in experiment [1] (setting [8]), the “CH4 l, day” value was 20.9 l, day and the CH4 l/kg intake worked out at 21.7 l/kg intake. In experiment [1] (setting [9]), the “CH4 l, day” value was 21.8 l, day and the CH4 l/kg intake turned out to be 23.2 l/kg intake. Moreover, in experiment [1] (setting [10]), the “CH4 l, day” value is 21.5 l, day and the CH4 l/kg intake worked out at 22.6 l/kg intake. For the same compound, the “reduction of methane emissions (liters per kg of fresh matter intake) against the control” value in experiment [1] (sheep, 100 mg per animal and day, day 14) is listed as 14%. Further, in experiment [2] (setting [11]), the Acetate is given as 67.5^b mol/100 mol, the Butirate amounted to 2.05 mol/100 mol, the “C2/C3 (acetate to propionate ratio)” value is 4.09^a and the Propionate is on record as 16.6^a mol/100 mol. Besides, in experiment [2] (setting [11]), the “Total (volatile fatty acids)” value amounted to 58.2, the Valerate turned out to be 1.94 mol/100 mol, the iso-butirate was determined as 10.1 mol/100 mol and the iso-valerate was 1.79 mol/100 mol. In experiment [3] (setting [12]), the Total bacteria is 9.08 * 10^10 copy gene numbers/g fresh matter and the “Total bacteria log 10” value is 10.9 log copy gene numbers/g fresh matter. The “Total protozoa ΔCt (relative abundance in relation to total bacteria)” value in the experiment with protozoa (18S rRNA) (setting [13]) came out at 1.58. In the experiment with protozoa (18S rRNA) (setting [14]), the Total protozoa was 1.87 * 10^10 copy gene numbers/g fresh matter and the “Total protozoa log 10” value was 10.2 log copy gene numbers/g fresh matter. For the same compound, the “Archaea ΔCt (relative abundance in relation to total bacteria)” value in experiment [4] (setting [13]) was 0.022. Moreover, in experiment [4] (setting [15]), the Archaea is recorded as 2.86 * 10^8 copy gene numbers/g fresh matter and the “Archaea log 10” value is recorded as 8.45 log copy gene numbers/g fresh matter.

Turning to `CCCCCC(=O)OCCCO[N+](=O)[O-]` [Compound 12, 3-Nitrooxy-propyl hexanoate], in experiment [5] (8 h), the inhibition at 0.01 % amounted to 42%, the inhibition at 0.1 % worked out at 99% and the inhibition at 1 % stood at 98%.

For `O=[N+]([O-])CCCO` [reference compound], in experiment [5] (setting [16]), the inhibition at 0.1 % stood at 2%.

For the compound `CCOC(=O)CCO` [reference compound], the inhibition at 0.1 % in experiment [5] (setting [16]) was determined as 6%.

Take `O=[N+]([O-])OCC(CCc1ccccc1)O[N+](=O)[O-]` (racemic) [Compound 2, rac-4-Phenylbutane-1,2-diyl dinitrate]: in experiment [5] (8 h), the inhibition at 0.5 % is 4% and the inhibition at 2 % amounted to 10%.

With `O=C(NCCO[N+](=O)[O-])c1cccnc1` [Compound 16, N-[2-(Nitrooxy)ethyl]-3-pyridinecarboxamide], the inhibition at 1 % in experiment [5] (1% DM, reduction in methane vs control, 8 hours at 39° C., average of two experiments) came to 100%.

On to `O=[N+]([O-])OCCCO` [Compound 1, 3-Nitrooxypropanol], for which, in experiment [5] (8 h), the inhibition at 0.005 % turned out to be 20%, the inhibition at 0.01 % came out at 79%, the inhibition at 0.05 % amounted to 100% and the inhibition at 0.1 % was determined as 100%. For the same compound, in experiment [5] (8 h), the inhibition at 0.5 % was 100% and the inhibition at 2 % was found to be 100%. For the same compound, in experiment [1] (in vivo), the “CH4 l, day” value is 18.3 l, day and 19.7 l, day and 19.1 l, day and 20.0 l, day; the CH4 l/kg intake is 22.5 and 19.6 and 25.6 and 23.1; the “reduction of methane emissions (liters per kg of fresh matter intake) against the control” value was 23%. Also, in experiment [2] (in vivo), the Acetate is 64.5^a mol/100 mol, the Butirate turned out to be 2.11 mol/100 mol, the “C2/C3 (acetate to propionate ratio)” value is recorded as 3.89^a and the Propionate was 17.5^b mol/100 mol. Besides, in experiment [2] (in vivo), the “Total (volatile fatty acids)” value came to 57.1, the Valerate is 1.82 mol/100 mol and the iso-valerate was 1.82 mol/100 mol. Further, in experiment [3] (in vivo), the Total bacteria is listed as 9.74 * 10^10 copy gene numbers/g fresh matter and the “Total bacteria log 10” value is recorded as 11.0 log copy gene numbers/g fresh matter. In the experiment on protozoa (18S rRNA) (in vivo), the Total protozoa is reported as 2.51 * 10^10 copy gene numbers/g fresh matter, the “Total protozoa log 10” value is given as 10.2 log copy gene numbers/g fresh matter and the “Total protozoa ΔCt (relative abundance in relation to total bacteria)” value turned out to be 1.55. Besides, in experiment [4] (in vivo), the Archaea is listed as 2.86 * 10^8 copy gene numbers/g fresh matter, the “Archaea log 10” value is reported as 8.34 log copy gene numbers/g fresh matter and the “Archaea ΔCt (relative abundance in relation to total bacteria)” value is 0.020. Further, in experiment [6], the “CH4, L/d” value was 555 L/day and 536 L/day; the “CH4, L/kg DMI” value was 29.9 L/kg DMI and 29.2 L/kg DMI; the “CH4, g/d” value is 398 g/day and 384 g/day.

For `O=[N+]([O-])OCc1ccccc1` [Compound 14, Benzylnitrate], in experiment [5] (8 h), the inhibition at 0.05 % was determined as 3%, the inhibition at 0.1 % came out at 37%, the inhibition at 0.5 % was 100% and the inhibition at 2 % was found to be 100%.

With `COCCCO` [reference compound], in experiment [5] (setting [16]), the inhibition at 0.1 % was determined as 8%.

As for `CCNS(=O)(=O)CCCO[N+](=O)[O-]` [Compound 4, N-Ethyl-3-nitrooxy-propionic sulfonyl amide], in experiment [5] (8 h), the inhibition at 0.05 % is 10%, the inhibition at 0.1 % was determined as 24%, the inhibition at 0.5 % came to 99% and the inhibition at 2 % was determined as 99%.

Regarding `O=C(OCCCO[N+](=O)[O-])c1ccccc1` [Compound 11, 3-Nitrooxy-propyl benzoate], in experiment [5] (8 h), the inhibition at 0.01 % stood at 11%, the inhibition at 0.1 % is 99% and the inhibition at 1 % is 99%.

In the case of `O=[N+]([O-])[O-].[Na+]` [Na NO3, reference compound], the “effect on methanogenesis (%)” value in experiment [5] (comparative example, 0.5% DM, average of two experiments) is reported as 2%; in experiment [5] (comparative example, 2% DM, average of two experiments), 23%.

In the case of `CCC(=O)OCCCO[N+](=O)[O-]` [Compound 7, 3-Nitrooxy-propyl propionate], in experiment [5] (8 h), the inhibition at 0.005 % turned out to be 6%, the inhibition at 0.01 % worked out at 21%, the inhibition at 0.05 % amounted to 100% and the inhibition at 0.1 % was determined as 100%.

These data come from US9266814B2, “Use of nitrooxy organic molecules in feed for reducing methane emission in ruminants, and/or to improve ruminant performance” (DSM IP ASSETS B.V., priority 2010, dated 2016).
